The source of these data is PMC10458360, “Assembling a Cinnamyl Pharmacophore in the C3-Position of Substituted Isatins via Microwave-Assisted Synthesis: Development of a New Class of Monoamine Oxidase-B Inhibitors for the Treatment of Parkinson’s Disease” (Molecules, 2023).

Assay [1] has as its system MAO-B. To be noted: cited from earlier work.
Assay [2] concerns the target T1, MAO-B (Homo sapiens, UniProt P27338).
T1 sequence (P27338 1-520): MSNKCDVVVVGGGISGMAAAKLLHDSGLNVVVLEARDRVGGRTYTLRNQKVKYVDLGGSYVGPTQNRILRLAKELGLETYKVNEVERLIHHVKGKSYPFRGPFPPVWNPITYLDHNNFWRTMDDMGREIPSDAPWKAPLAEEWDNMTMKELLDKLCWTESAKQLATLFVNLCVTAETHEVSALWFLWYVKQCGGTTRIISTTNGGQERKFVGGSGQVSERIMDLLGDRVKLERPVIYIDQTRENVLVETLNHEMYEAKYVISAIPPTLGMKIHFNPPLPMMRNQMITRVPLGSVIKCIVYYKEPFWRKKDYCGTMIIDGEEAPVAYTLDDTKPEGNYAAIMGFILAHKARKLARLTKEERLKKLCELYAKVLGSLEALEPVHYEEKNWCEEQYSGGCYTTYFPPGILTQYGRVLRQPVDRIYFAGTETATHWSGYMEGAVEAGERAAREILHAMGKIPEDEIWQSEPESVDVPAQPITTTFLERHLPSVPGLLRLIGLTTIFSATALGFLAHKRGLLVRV
The assay is described as follows: biochemical. To be noted: 0.3 mM benzylamine; for IC50: IC50 (µM) MAO-B, limit 40 µM; for remaining activity at 10 µM: read-out: Residual Activity at 10 µM (%) MAO-B, 10 µM compound.

For a further assay, the target named is T2, MAO-A (Homo sapiens, UniProt P21397).
T2 sequence (P21397 1-527): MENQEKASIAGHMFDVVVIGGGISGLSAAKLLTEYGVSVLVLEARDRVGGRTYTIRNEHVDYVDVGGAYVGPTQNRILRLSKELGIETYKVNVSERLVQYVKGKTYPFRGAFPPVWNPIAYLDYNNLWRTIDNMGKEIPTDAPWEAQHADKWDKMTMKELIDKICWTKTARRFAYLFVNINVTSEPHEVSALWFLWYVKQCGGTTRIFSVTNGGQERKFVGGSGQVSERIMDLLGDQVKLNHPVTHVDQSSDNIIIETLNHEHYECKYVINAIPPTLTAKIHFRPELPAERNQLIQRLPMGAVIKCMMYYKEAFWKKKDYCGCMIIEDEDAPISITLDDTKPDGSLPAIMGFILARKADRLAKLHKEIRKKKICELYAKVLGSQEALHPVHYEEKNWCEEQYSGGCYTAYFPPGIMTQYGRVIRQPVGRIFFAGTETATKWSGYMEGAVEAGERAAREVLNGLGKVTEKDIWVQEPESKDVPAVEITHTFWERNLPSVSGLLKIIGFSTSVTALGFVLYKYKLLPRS
The assay is described as follows: Inhibition of MAO-A (kynuramine, continuous absorbance assay). To be noted: for remaining activity at 10 µM: read-out: Residual Activity at 10 µM (%) MAO-A.

Assay [3] deals with T1, MAO-B. To be noted: for SI (selectivity index): IC50 for MAO-A/IC50 for MAO-B.
The test system of a further assay is SH-SY5Y cells. The assay is described as follows: Neuroprotection on rotenone-induced SH-SY5Y cells by MTT assay. In kind it is cell-based. Background: Tetrazolium dyes change colour on reduction, which living cells bring about.
Assay [4] addresses T1, MAO-B. The assay is described as follows: Reversibility of MAO-B inhibition by dialysis. To be noted: for Residual activity, dialyzed (AD): dialyzed 6 h, two buffer changes. The class given is biochemical.
The target in assay [5] is T1, MAO-B. The experiment in a line: MAO-B enzyme kinetics (Lineweaver-Burk and secondary plot). In kind it is biochemical.
A further assay concerns MAO. On the set-up: method as in PMID 27374845. To be noted: cited from earlier work.
The mark [6] stands for this setting: ~2.0 times IC50, preincubation 30 min.

As usually defined, the IC50 is the concentration that inhibits the measured activity by half. For the compound `O=C1Nc2ccc(OCc3ccc(Cl)c(Cl)c3)cc2C1=O` [A3], the IC50 in the assay on MAO-B [1] is 0.003 µM.
As for `O=C1Nc2ccc(Br)cc2C1=O` [Compound 1f], the IC50 with MAO-B [1] was 0.125 µM.
Regarding `C#CCN1C(=O)/C(=N/NC(=O)c2ccc3c(c2)OCO3)c2ccccc21` [Compound 3], the IC50 with MAO-B [1] was 0.034 µM.
Turning to `O=C(CN1CCc2cc(OCc3ccccc3)ccc21)N1CCN(CCO)CC1` [Compound 14], the IC50 in the assay on MAO-B [1] was 8.65 µM.
With `O=C1Nc2ccccc2C1=NN=CC=Cc1ccccc1` [IHC1], the half-inhibitory concentration (IC50) at MAO-B [2] and at MAO-A was above 40 µM each time. Besides, the remaining activity at 10 µM was found to be 89.3 ± 3% on MAO-B [2] and 94.5 ± 2.1% on MAO-A.
`O=C1Nc2ccc(Br)cc2C1=NN=CC=Cc1ccccc1` [IHC2]: the “SI (selectivity index)” value on MAO-B [3] is reported as above 2.36. At MAO-B [2], the 50% inhibitory concentration (IC50) came out at 16.9 ± 0.397 µM and the remaining activity at 10 µM turned out to be 61.4 ± 3.42%. Further, at MAO-A, the half-maximal inhibitory concentration (IC50) was above 40 µM and the remaining activity at 10 µM was 92.37 ± 0.52%.
One may read the viability as a per cent measure of how many cells are alive, often set against a control. As a reminder, the Ki is a measure of affinity in units of concentration, obtained from inhibition or displacement. A lower Ki goes with tighter binding. Turning to `O=C1Nc2ccc(F)cc2/C1=N/N=CC=Cc1ccccc1` [IHC3], the “SI (selectivity index)” value at MAO-B [3] was above 23.92. Besides, on MAO-B [3] (ratio of IC50 values), the “Times higher MAO-B inhibition than IHMC2” value is 15.07 times and the “Times higher MAO-B inhibition than IHNC2” value was found to be 13.15 times. Besides, the Cell viability trend result with SH-SY5Y cells (25 µg/mL IHC3, rotenone-induced cells, MTT) is “viability decreased”. In addition, the viability at 12.5 µg/mL in the assay with SH-SY5Y cells (Homo sapiens, SH-SY5Y, 12.5 µg/mL IHC3, rotenone-induced cells, MTT, 24 h, read-out: Cell viability (maximum)) came out at 89.7%. In addition, in the assay with SH-SY5Y cells (SH-SY5Y neuroblastoma cells), the “Cell death caused by rotenone” value is recorded as “greatly decreased the cell death”. The compound also showed an IC50 at MAO-B [2] of 1.67 µM. Moreover, the “Reversibility of MAO-B inhibition” value on MAO-B [4] (dialysis) is “reversible MAO-B inhibitor”. Besides, the “Residual activity, dialyzed (AD)” value on MAO-B [4] (setting [6]) is reported as 72.05%. The “Residual activity, undialyzed (AU)” value on MAO-B [4] (~2.0 times IC50, preincubation 30 min, undialyzed) is given as 32.87%. Besides, at MAO-A, the IC50 was above 40 µM and the remaining activity at 10 µM worked out at 76.9 ± 1.55%. Further, the “Type of MAO-B inhibition” value on MAO-B [5] (Lineweaver-Burk plot) is recorded as “competitive MAO-B inhibitor”. The compound also registered an inhibition constant Ki at MAO-B [5] (secondary plot, benzylamine substrate) of 0.51 ± 0.15 µM.
For `O=C1Nc2ccc(Cl)cc2C1=NN=CC=Cc1ccccc1` [IHC4], the “SI (selectivity index)” value at MAO-B [3] was above 1.46. In addition, the values for the IC50 against MAO-B [2] and at MAO-A were 27.5 ± 1.15 µM and above 40 µM, respectively. The remaining activity at 10 µM was 73.9 ± 8.87% at MAO-B [2] and 86.7 ± 1.78% at MAO-A.
Turning to `COc1ccc2c(c1)C(=NN=CC=Cc1ccccc1)C(=O)N2` [IHC5], at MAO-B [2], the half-maximal inhibitory concentration (IC50) was above 40 µM and the remaining activity at 10 µM amounted to 75.8 ± 6.17%. Besides, at MAO-A, the half-inhibitory concentration (IC50) was above 40 µM and the remaining activity at 10 µM was 82.3 ± 1.8%.
On to `Cc1ccc2c(c1)C(=NN=CC=Cc1ccccc1)C(=O)N2` [IHC6], for which, on MAO-B [2], the IC50 was above 40 µM and the remaining activity at 10 µM was 79.4 ± 3.25%. Further, on MAO-A, the half-maximal inhibitory concentration (IC50) was above 40 µM and the remaining activity at 10 µM worked out at 98.1 ± 1.55%.
Consider `COc1ccc(C=CC=NN=C2C(=O)Nc3ccccc32)cc1` [IHMC1], for which, on MAO-B [2], the IC50 was above 40 µM and the remaining activity at 10 µM turned out to be 96.89 ± 0.95%. In addition, on MAO-A, the IC50 is above 40 µM and the remaining activity at 10 µM is 89.9 ± 1.3%.
Regarding `COc1ccc(C=CC=NN=C2C(=O)Nc3ccc(Br)cc32)cc1` [IHMC2], the “SI (selectivity index)” value on MAO-B [3] is listed as above 1.59. Further, on MAO-B [2], inhibition was half-maximal at 25.19 ± 0.147 µM (IC50) and the remaining activity at 10 µM amounted to 78.1 ± 1.12%. On MAO-A, the IC50 was above 40 µM and the remaining activity at 10 µM is 86.63 ± 0.52%.
Turning to `COc1ccc(C=CC=NN=C2C(=O)Nc3ccc(F)cc32)cc1` [IHMC3], the IC50 against MAO-B [2] and against MAO-A was above 40 µM in each case. Also, the figures for the remaining activity at 10 µM on MAO-B [2] and on MAO-A were 81.3 ± 4.61% and 85.5 ± 6.42%, respectively.
Take `COc1ccc(C=CC=NN=C2C(=O)Nc3ccc(Cl)cc32)cc1` [IHMC4]: at MAO-B [2], the 50% inhibitory concentration (IC50) was above 40 µM and the remaining activity at 10 µM worked out at 76.5 ± 3.27%. In addition, on MAO-A, the IC50 was above 40 µM and the remaining activity at 10 µM worked out at 81.46 ± 0.77%.
For `COc1ccc(C=CC=NN=C2C(=O)Nc3ccc(OC)cc32)cc1` [IHMC5], on MAO-B [2], the IC50 was above 40 µM and the remaining activity at 10 µM came out at 85.6 ± 4.27%. Moreover, at MAO-A, the half-inhibitory concentration (IC50) was above 40 µM and the remaining activity at 10 µM came to 84.48 ± 0.73%.
Regarding `COc1ccc(C=CC=NN=C2C(=O)Nc3ccc(C)cc32)cc1` [IHMC6], on MAO-B [2], the concentration for half-maximal inhibition (IC50) is above 40 µM and the remaining activity at 10 µM was 91.8 ± 3.48%. Also, on MAO-A, the IC50 was above 40 µM and the remaining activity at 10 µM came out at 89.8 ± 2.55%.
In the case of `O=C1Nc2ccccc2C1=NN=CC=Cc1ccc([N+](=O)[O-])cc1` [IHNC1], the half-inhibitory concentration (IC50) against MAO-B [2] and against MAO-A was above 40 µM each time. For the same compound, the remaining activity at 10 µM on MAO-B [2] turned out to be 96.9 ± 3.36%; on MAO-A it was 88.7 ± 2.4%.
Regarding `O=C1Nc2ccc(Br)cc2C1=NN=CC=Cc1ccc([N+](=O)[O-])cc1` [IHNC2], the “SI (selectivity index)” value at MAO-B [3] is on record as above 1.82. The concentration for half-maximal inhibition (IC50) against MAO-B [2] was 22 ± 0.354 µM; against MAO-A, above 40 µM. Also, the values for the remaining activity at 10 µM at MAO-B [2] and on MAO-A were 71.2 ± 1.99% and 88.5 ± 0.71%, respectively.
With `O=C1Nc2ccc(F)cc2C1=NN=CC=Cc1ccc([N+](=O)[O-])cc1` [IHNC3], on MAO-B [2], the IC50 was above 40 µM and the remaining activity at 10 µM came out at 78.9 ± 3.35%. At MAO-A, the half-inhibitory concentration (IC50) was above 40 µM and the remaining activity at 10 µM worked out at 80.4 ± 0.57%.
Regarding `O=C1Nc2ccc(Cl)cc2C1=NN=CC=Cc1ccc([N+](=O)[O-])cc1` [IHNC4], the “SI (selectivity index)” value at MAO-B [3] is listed as above 1.51. At MAO-B [2], the midpoint of inhibition, the IC50, lay at 26.5 ± 0.6 µM and the remaining activity at 10 µM came out at 74.5 ± 4.63%. On MAO-A, the 50% inhibitory concentration (IC50) was above 40 µM and the remaining activity at 10 µM worked out at 82.3 ± 0.99%.
Regarding `COc1ccc2c(c1)C(=NN=CC=Cc1ccc([N+](=O)[O-])cc1)C(=O)N2` [IHNC5], at MAO-B [2], the IC50 was above 40 µM and the remaining activity at 10 µM was 82 ± 1.05%. On MAO-A, the IC50 was above 40 µM and the remaining activity at 10 µM is 88.6 ± 1.98%.
For the compound `Cc1ccc2c(c1)C(=NN=CC=Cc1ccc([N+](=O)[O-])cc1)C(=O)N2` [IHNC6], on MAO-B [2], the half-maximal inhibitory concentration (IC50) was above 40 µM and the remaining activity at 10 µM came out at 81.1 ± 6.4%. Moreover, on MAO-A, the concentration for half-maximal inhibition (IC50) is above 40 µM and the remaining activity at 10 µM was found to be 87.2 ± 1.13%.
For `C[C@H](NCc1ccc(OCc2cccc(F)c2)cc1)C(N)=O` [Safinamide, reference compound], the “Residual activity, dialyzed (AD)” value on MAO-B [4] (setting [6]) came to 85.86%.
With `O=C1Nc2ccccc2C1=O` [isatin, 1H-indole-2,3-dione], in the assay with MAO, the IC50 is around 3 µM.
